{"source": "paper doi:10.1101/2021.02.22.432404v1", "about": "(biorxiv, 2021)"}
{"target": "T1, E. coli thymidylate kinase (TMPK) (Escherichia coli, UniProt P0A720)", "T1 sequence (P0A720 1-213)": "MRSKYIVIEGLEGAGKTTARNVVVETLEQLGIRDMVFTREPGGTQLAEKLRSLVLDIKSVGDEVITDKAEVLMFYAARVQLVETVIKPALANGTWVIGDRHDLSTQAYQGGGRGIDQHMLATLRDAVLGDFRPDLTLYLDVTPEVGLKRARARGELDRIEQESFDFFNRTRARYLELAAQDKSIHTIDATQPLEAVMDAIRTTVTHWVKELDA", "assay": "ATPlite luminescence assay, direction of ATP synthesis", "type": "biochemical", "units": {"IC50": "nM"}}
{"smiles": "COc1cc(C=C2SC(=S)NC2=O)ccc1OC(C)C", "note": "[compound 1]", "IC50": 390}
{"smiles": "COc1ccc(C=C2SC(=S)NC2=O)cc1O", "note": "[compound 2]", "IC50": 2500}
{"smiles": "CCOc1ccc(C=C2SC(S)=NC2=O)cc1OC", "note": "[compound 9]", "IC50": 410}
{"smiles": "COc1cc(C=C2SC(=S)NC2=O)ccc1OC(C)=O", "note": "[compound 11]", "IC50": 480}
{"smiles": "COc1cc(C=C2SC(=S)NC2=O)ccc1O", "note": "[compound 12]", "IC50": 500}
{"smiles": "C=CCOc1cccc(C=C2SC(=S)NC2=O)c1", "note": "[compound 13]", "IC50": 1000}
{"smiles": "COc1cc(C=C2SC(=S)NC2=O)cc(OC)c1O", "note": "[compound 27]", "IC50": 250}
{"smiles": "CCOc1cc(C=C2SC(=S)NC2=O)ccc1OC(C)=O", "note": "[compound 28]", "IC50": 470}
{"smiles": "CCOC(=O)COc1ccc(C=C2SC(=S)NC2=O)cc1OC", "note": "[compound 31]", "IC50": 680}
